Experimental data taken from US20140120232A1, “ACID TASTE/ACID SMELL-REDUCING AGENT” (T. HASEGAWA CO., LTD., priority 2011, published 2014).

Assay: Sensory evaluation of Vermont drink containing the agent
Conditions: ten panels
In short: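 Tridecadienal or tridecatrienal isomers added at various concentrations to a Vermont-flavoured drink (apple-cider vinegar, honey, liquid sugar, citric acid, trisodium citrate, 100 mL total). Ten panelists assessed acid taste/acid smell and aldehyde-type off-odour, and the concentration giving the best acid taste/smell quality was selected.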

CCCCC/C=C/C/C=C/C=C/C=O [(E,E,E)-2,4,7-tridecatrienal]
9: A: number of panels, acid taste/acid smell extreme and cause irritation (0.2 ppt)
7: A: number of panels, acid taste/acid smell extreme and cause irritation (0.5 ppt) | B: number of panels, acid taste/acid smell slightly strong and slightly cause irritation (1 ppt) | X: number of panels, acid taste reduced but piercing odor characteristic to aldehydes unpleasant (50 ppb)
4: N: number of panels, irritation of acid reduced to give a mild acid taste (1 ppb) | X: number of panels, acid taste reduced but piercing odor characteristic to aldehydes unpleasant (1 ppb) | C: number of panels, acid taste/acid smell slightly unpleasant (500 ppt) | N: number of panels, irritation of acid reduced to give a mild acid taste (500 ppt)
10: A: number of panels, acid taste/acid smell extreme and cause irritation (0.005 ppt) | A: number of panels, acid taste/acid smell extreme and cause irritation (0.02 ppt) | A: number of panels, acid taste/acid smell extreme and cause irritation (0.1 ppt)
2: C: number of panels, acid taste/acid smell slightly unpleasant (0.5 ppt) | C: number of panels, acid taste/acid smell slightly unpleasant (1 ppb) | B: number of panels, acid taste/acid smell slightly strong and slightly cause irritation (5 ppt) | Flavor judgment: number of panels who judged acid taste/acid smell quality the highest (5 ppt) | C: number of panels, acid taste/acid smell slightly unpleasant (10 ppb) | N: number of panels, irritation of acid reduced to give a mild acid taste (10 ppb) | B: number of panels, acid taste/acid smell slightly strong and slightly cause irritation (100 ppt) | C: number of panels, acid taste/acid smell slightly unpleasant (100 ppt) | X: number of panels, acid taste reduced but piercing odor characteristic to aldehydes unpleasant (500 ppt)
6: X: number of panels, acid taste reduced but piercing odor characteristic to aldehydes unpleasant (10 ppb) | N: number of panels, irritation of acid reduced to give a mild acid taste (20 ppt) | N: number of panels, irritation of acid reduced to give a mild acid taste (100 ppt)
1: B: number of panels, acid taste/acid smell slightly strong and slightly cause irritation (0.2 ppt) | B: number of panels, acid taste/acid smell slightly strong and slightly cause irritation (0.5 ppt) | N: number of panels, irritation of acid reduced to give a mild acid taste (1 ppt) | B: number of panels, acid taste/acid smell slightly strong and slightly cause irritation (20 ppt)
3: C: number of panels, acid taste/acid smell slightly unpleasant (1 ppt) | C: number of panels, acid taste/acid smell slightly unpleasant (5 ppt) | C: number of panels, acid taste/acid smell slightly unpleasant (20 ppt) | N: number of panels, irritation of acid reduced to give a mild acid taste (50 ppb) | Flavor judgment: number of panels who judged acid taste/acid smell quality the highest (100 ppt)
0: B: number of panels, acid taste/acid smell slightly strong and slightly cause irritation (0.005 ppt) | C: number of panels, acid taste/acid smell slightly unpleasant (0.005 ppt) | Flavor judgment: number of panels who judged acid taste/acid smell quality the highest (0.005 ppt) | N: number of panels, irritation of acid reduced to give a mild acid taste (0.005 ppt) | X: number of panels, acid taste reduced but piercing odor characteristic to aldehydes unpleasant (0.005 ppt) | B: number of panels, acid taste/acid smell slightly strong and slightly cause irritation (0.02 ppt) | C: number of panels, acid taste/acid smell slightly unpleasant (0.02 ppt) | Flavor judgment: number of panels who judged acid taste/acid smell quality the highest (0.02 ppt) | N: number of panels, irritation of acid reduced to give a mild acid taste (0.02 ppt) | X: number of panels, acid taste reduced but piercing odor characteristic to aldehydes unpleasant (0.02 ppt) | B: number of panels, acid taste/acid smell slightly strong and slightly cause irritation (0.1 ppt) | C: number of panels, acid taste/acid smell slightly unpleasant (0.1 ppt) | Flavor judgment: number of panels who judged acid taste/acid smell quality the highest (0.1 ppt) | N: number of panels, irritation of acid reduced to give a mild acid taste (0.1 ppt) | X: number of panels, acid taste reduced but piercing odor characteristic to aldehydes unpleasant (0.1 ppt) | C: number of panels, acid taste/acid smell slightly unpleasant (0.2 ppt) | Flavor judgment: number of panels who judged acid taste/acid smell quality the highest (0.2 ppt) | N: number of panels, irritation of acid reduced to give a mild acid taste (0.2 ppt) | X: number of panels, acid taste reduced but piercing odor characteristic to aldehydes unpleasant (0.2 ppt) | Flavor judgment: number of panels who judged acid taste/acid smell quality the highest (0.5 ppt) | N: number of panels, irritation of acid reduced to give a mild acid taste (0.5 ppt) | X: number of panels, acid taste reduced but piercing odor characteristic to aldehydes unpleasant (0.5 ppt) | A: number of panels, acid taste/acid smell extreme and cause irritation (1 ppb) | B: number of panels, acid taste/acid smell slightly strong and slightly cause irritation (1 ppb) | Flavor judgment: number of panels who judged acid taste/acid smell quality the highest (1 ppb) | A: number of panels, acid taste/acid smell extreme and cause irritation (1 ppt) | Flavor judgment: number of panels who judged acid taste/acid smell quality the highest (1 ppt) | X: number of panels, acid taste reduced but piercing odor characteristic to aldehydes unpleasant (1 ppt) | A: number of panels, acid taste/acid smell extreme and cause irritation (5 ppt) | X: number of panels, acid taste reduced but piercing odor characteristic to aldehydes unpleasant (5 ppt) | A: number of panels, acid taste/acid smell extreme and cause irritation (10 ppb) | B: number of panels, acid taste/acid smell slightly strong and slightly cause irritation (10 ppb) | Flavor judgment: number of panels who judged acid taste/acid smell quality the highest (10 ppb) | A: number of panels, acid taste/acid smell extreme and cause irritation (20 ppt) | X: number of panels, acid taste reduced but piercing odor characteristic to aldehydes unpleasant (20 ppt) | A: number of panels, acid taste/acid smell extreme and cause irritation (50 ppb) | B: number of panels, acid taste/acid smell slightly strong and slightly cause irritation (50 ppb) | C: number of panels, acid taste/acid smell slightly unpleasant (50 ppb) | Flavor judgment: number of panels who judged acid taste/acid smell quality the highest (50 ppb) | A: number of panels, acid taste/acid smell extreme and cause irritation (100 ppt) | X: number of panels, acid taste reduced but piercing odor characteristic to aldehydes unpleasant (100 ppt) | A: number of panels, acid taste/acid smell extreme and cause irritation (500 ppt) | B: number of panels, acid taste/acid smell slightly strong and slightly cause irritation (500 ppt) | Flavor judgment: number of panels who judged acid taste/acid smell quality the highest (500 ppt)
5: N: number of panels, irritation of acid reduced to give a mild acid taste (5 ppt) | Flavor judgment: number of panels who judged acid taste/acid smell quality the highest (20 ppt)
